Results: US12319664B2, “Herbicidally active 3-phenylisoxazoline-5-carboxamides of cyclopentenylcarboxylic acid derivatives” (Bayer Aktiengesellschaft, priority 2018, dated 2025)

What was measured:
POLCO = assay: Post-emergence herbicidal action against POLCO; assay type: in vivo, Polygonum convolvulus; conditions: application rate 80 g/ha, rated visually about 3 weeks after treatment
How it was run: (§1)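 Foliar application at 600 l/ha water, 0.5% additive, WP or EC formulation; plants at one-leaf stage in greenhouse sandy loam pots. Scored visually ~3 weeks post-treatment, 0–100% relative to untreated plants.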

ECHCG = assay: Post-emergence herbicidal action against ECHCG; assay type: in vivo, Echinochloa crus-galli; conditions: application rate 80 g/ha, rated visually after about 3 weeks
How it was run: as §1

ABUTH = assay: Post-emergence herbicidal action against ABUTH; assay type: in vivo, Abutilon theophrasti; conditions: application rate 80 g/ha, rated visually about 3 weeks after treatment
How it was run: as §1

AMARE = assay: Post-emergence herbicidal action against AMARE; assay type: in vivo, Amaranthus retroflexus; conditions: application rate 80 g/ha, rated visually about 3 weeks after treatment
How it was run: as §1

VIOTR = assay: Post-emergence herbicidal action against VIOTR; assay type: in vivo, Viola tricolor; conditions: application rate 80 g/ha, rated visually about 3 weeks after treatment
How it was run: as §1

LOLRI = assay: Post-emergence herbicidal action against LOLRI; assay type: in vivo, Lolium rigidum; conditions: application rate 80 g/ha, rated visually after about 3 weeks
How it was run: as §1

STEME = assay: Post-emergence herbicidal action against STEME; assay type: in vivo, Stellaria media; conditions: application rate 80 g/ha, rated visually about 3 weeks after treatment
How it was run: as §1

PHBPU = assay: Post-emergence herbicidal action against PHBPU; assay type: in vivo, Pharbitis purpurea; conditions: application rate 80 g/ha, rated visually about 3 weeks after treatment
How it was run: as §1

HORMU = assay: Post-emergence herbicidal action against HORMU; assay type: in vivo, Hordeum murinum; conditions: application rate 80 g/ha
How it was run: as §1

MATIN = assay: Post-emergence herbicidal action against MATIN; assay type: in vivo, Matricaria inodora; conditions: application rate 80 g/ha, rated visually about 3 weeks after treatment
How it was run: as §1

SETVI = assay: Post-emergence herbicidal action against SETVI; assay type: in vivo, Setaria viridis; conditions: application rate 80 g/ha, rated visually after about 3 weeks
How it was run: as §1

VERPE = assay: Post-emergence herbicidal action against VERPE; assay type: in vivo, Veronica persica; conditions: application rate 80 g/ha
How it was run: as §1

ALOMY = assay: Post-emergence herbicidal action against ALOMY; assay type: in vivo, Alopecurus myosuroides; conditions: application rate 80 g/ha, rated visually after about 3 weeks
How it was run: as §1

AVEFA = assay: Post-emergence herbicidal action against AVEFA; assay type: in vivo, Avena fatua; conditions: application rate 80 g/ha, rated visually after about 3 weeks
How it was run: as §1

SMILES	Herbicidal action against [%] POLCO (POLCO)	Herbicidal action against [%] ECHCG (ECHCG)	Herbicidal action against [%] ABUTH (ABUTH)	Herbicidal action against [%] AMARE (AMARE)	Herbicidal action against [%] VIOTR (VIOTR)	Herbicidal action against [%] LOLRI (LOLRI)	Herbicidal action against [%] STEME (STEME)	Herbicidal action against [%] PHBPU (PHBPU)	Herbicidal action against [%] HORMU (HORMU)	Herbicidal action against [%] MATIN (MATIN)	Herbicidal action against [%] SETVI (SETVI)	Herbicidal action against [%] VERPE (VERPE)	Herbicidal action against [%] ALOMY (ALOMY)	Herbicidal action against [%] AVEFA (AVEFA)
CCOC(=O)C1C=CC(NC(=O)C2(C(F)(F)F)CC(c3cc(F)cc(F)c3)=NO2)C1 (mixture of isomers) [Example I-058]	90%	100%	90%	90%	90%	90%	90%	80%	100%	90%	90%	80%	100%	100%
C=CC1(C(=O)NC2C=CC(C(=O)OCCCl)C2)CC(c2cc(F)cc(F)c2)=NO1 (mixture of isomers) [Example I-061]	90%	100%	80%	90%	80%	90%	90%	80%	90%	80%	90%	90%	90%	100%
COC(=O)C1C=CC(NC(=O)C2(C(F)(F)F)CC(c3cc(F)cc(F)c3)=NO2)C1 (mixture of isomers) [Example I-063]	90%	90%	90%	90%	80%	100%	90%	80%	90%	90%	90%	80%	90%	100%
CC(C)OC(=O)C1C=CC(NC(=O)C2(C(F)(F)F)CC(c3cc(F)cc(F)c3)=NO2)C1 (mixture of isomers) [Example I-064]	90%	90%	80%	90%	80%	100%	80%	80%	90%	90%	90%	80%	90%	100%
O=C(OCc1ccccc1)C1C=CC(NC(=O)C2(C(F)(F)F)CC(c3cc(F)cc(F)c3)=NO2)C1 (mixture of isomers) [Example I-065]	90%	90%	80%	80%	90%	90%	90%	80%	90%	80%	90%	80%	90%	90%
O=C(OCCCl)C1C=CC(NC(=O)C2(C(F)(F)F)CC(c3cc(F)cc(F)c3)=NO2)C1 (mixture of isomers) [Example I-067]	90%	90%	80%	80%	80%	90%	90%	80%	90%	80%	90%	80%	90%	100%
O=C(OCC(F)(F)F)C1C=CC(NC(=O)C2(C(F)(F)F)CC(c3cc(F)cc(F)c3)=NO2)C1 (mixture of isomers) [Example I-068]	90%	90%	90%	80%	90%	90%	90%	80%	90%	90%	90%	80%	90%	100%
COC(=O)C(NC(=O)C1C=CC(NC(=O)C2(C)CC(c3cc(F)cc(F)c3)=NO2)C1)C(C)C (mixture of isomers) [II-11]	90%	90%	90%	90%	90%	90%	90%	90%	90%	90%	90%	90%	90%	90%
COC(=O)[C@@H]1C=C[C@H](NC(=O)C2(C(F)(F)F)CC(c3cc(F)cc(C#N)c3)=NO2)C1 (single isomer, unassigned) [Example I-098]	80%	90%	80%	80%	80%	90%	90%	80%	90%	80%	80%	80%	100%	100%
COC(=O)[C@H]1C=C[C@H](NC(=O)[C@@]2(C(F)(F)F)CC(c3cc(F)cc(F)c3)=NO2)C1 [Example I-062]	80%	90%	80%	80%	80%	90%	80%	80%	100%	80%	80%	90%	100%	100%
COCCOC(=O)[C@@H]1C=C[C@H](NC(=O)[C@@]2(C(F)(F)F)CC(c3cc(F)cc(F)c3)=NO2)C1 [Example I-076]	90%	90%	80%	90%	80%	100%	90%	80%	80%	80%	90%	80%	100%	100%
COCCOC(=O)[C@@H]1C=C[C@H](NC(=O)[C@@]2(C)CC(c3cc(F)cc(F)c3)=NO2)C1 [Example I-092]	80%	80%	90%	90%	80%	90%	90%	80%	100%	90%	80%	90%	90%	90%
